Test system: HFD-fed WT mice
Experiment: High-fat diet (HFD) mouse model of obesity/NAFLD, WT mice
Assay type: in vivo
Source text: The well-established high-fat diet (HFD) mouse model of obesity was used to study the impact of PBI-4547 on the onset and progression of NAFLD. A 14-week HFD regimen led to significant weight gain in both male and female mice. […] Moreover, PBI-4547 decreased serum triglycerides while enhancing adiponectin levels. […] Of note, the effects of PBI-4547 on bodyweight, food consumption, glucose tolerance, fasting blood glucose, insulin resistance and HOMA-β indices were absent in standard diet-fed mice (Table S1).
Total cholesterol levels were measured using the HDL/LDL/VLDL Cholesterol Assay kit (Abcam) according to manufacturer’s protocol. […] Liver triglycerides were extracted using a modified version of the Folch protocol[49]^, then quantified using a triglyceride colorimetric kit (Cayman Chemical).
WT or Gpr84^−/− mice, as previously described, (aged 10–14 weeks at the beginning of the experiment) were either fed a standard diet (STD) or a high-fat diet (HFD) (Envigo #TD.06414) for 14 weeks. At this point, mice were administered either vehicle (water) or PBI-4547 (10 mg/kg) on a daily basis for 6 (WT study) or 8 (WT vs KO study) weeks by gastric gavage, and were sacrificed thereafter. Liver and WAT tissues were fixed in 10% formalin for histological analyses or flash frozen in liquid nitrogen for RT-PCR analyses. All animal studies were reviewed and approved by the animal care and use committee of the Institut National de la Recherche Scientifique – Armand-Frappier (Laval, QC, Canada) and the University of Ottawa’s Animal Care and Veterinary Services (Ottawa, ON, Canada). Protocols were approved and undertaken according to the Canadian Council on Animal Care guidelines.
Oral glucose tolerance tests (OGTT) were completed 6 weeks after beginning of the treatments. Briefly, mice were fasted for 4–6 h, given a bolus of glucose at […] BW orally, and blood glucose values measured at 0, 15, 30, 60, 120 min. In parallel, a blood sample was obtained at 0, 15, 60 and 120 min for insulin quantification by ELISA (EMD Millipore).
After fixation in formalin, iWAT (inguinal), eWAT (epididymal) and liver sections were embedded in paraffin. Thin section of […] were stained with Hematoxylin and Eosin or Sirius red for analyses. WAT collagen deposition and liver characteristics of NAFLD were quantified histologically by a pathologist (R.C.) in a double-blinded manner. Liver histology was performed on H&E stained slides. WAT collagen deposition was scored using Picro Sirius-Red stained slides. Immunofluorescence-detection of α-SMA in liver sections was performed. Briefly, samples were deparaffinized in a series of xylenes, rehydrated in graded alcohols followed by an antigen-unmasking step by microwaving in Tris-buffer (pH 8.2). Sections were blocked with 10% donkey serum (Vector labs), 1% bovine serum albumin (Sigma) in PBS + 1%Tween for 1 h at room temperature. Slides were incubated overnight at 4 °C with an anti-mouse smooth muscle α-Actin antibody (1:300; Santa Cruz, clone #1A4). Secondary detection was performed using a donkey anti-mouse Alexa Fluor 594 (1:500; Molecular Probes), incubated for 1 h at room temperature. Slides were dehydrated and mounted with fluorescent antifade media containing DAPI (Vector labs). Images were taken at 100X and 200X magnification and representative images are shown.
RNA was extracted and purified as previously described. Real-time quantitative PCR was performed on a CFX96 Touch Real-Time PCR Detection System (Bio-Rad) using TaqMan gene expression assays (Fisher Scientific). qPCR data were analyzed using the 2-^ΔΔCt method, using Gapdh and Hprt as endogenous control. RT-qPCR data were reported as Geometric means ± SEM.
A portion of hepatic tissue (50 mg) was mechanically homogenized in 1 mL H2O/CH3CN (1/1) using a PowerGen 125 homogenizer (Fisher Scientific). The homogenates were centrifuged for 10 min at 5,000×g at 4 °C. Hydrophilic metabolites were lyophilized to remove water for NMR experiments. […]

[1] = HFD mice, 1H-NMR liver metabolomics

- organ weight (HFD mice, 10 mg/kg daily by gavage): without affecting
SMILES: CCCCCc1cc(CCCCC)cc(CC(=O)[O-])c1.[Na+] [PBI-4547, 2-[3,5-dipentylphenyl]acetate sodium salt]
- HOMA-IR index (HFD mice, 10 mg/kg daily): decreased by PBI-4547 to the STD group level
- degree of hepatic inflammation (histology) (HFD mice, 10 mg/kg daily): remained unchanged
- disposition index (HFD mice, 10 mg/kg daily): remained unchanged
- fasting insulin levels (HFD mice, 10 mg/kg daily): lowered
- hepatic ballooning (histology) (HFD mice, 10 mg/kg daily): markedly reduced
- hepatic steatosis (histology) (HFD mice, 10 mg/kg daily): markedly reduced
- liver total cholesterol (HFD mice, 10 mg/kg daily): without affecting
- liver triglyceride levels (HFD mice, 10 mg/kg daily): reduced
- oral glucose tolerance test (OGTT) (HFD mice, 10 mg/kg daily): better glycemic control
- overall NAFLD score (HFD mice, 10 mg/kg daily): significantly improving
- serum adiponectin levels (HFD mice, 10 mg/kg daily): enhancing
- serum triglycerides (HFD mice, 10 mg/kg daily): decreased
- bodyweight (HFD mice, 10 mg/kg daily by gavage, 5 weeks after beginning of treatment): significant reduction
- fasting blood glucose (HFD mice, 10 mg/kg daily, after 6 weeks of treatment): decreased
- hepatic dysregulation of key amino acids and citric acid cycle intermediates (metabolomics) [1]: corrected
- hepatic energy metabolism intermediates (metabolomics) [1]: restored back to normal levels
- maximum diameter or average size of adipocytes (HFD mice, WAT morphometric analysis): did not affect
- WAT expression of Pgc1a and Ucp1 (HFD mice, WAT qRT-PCR): induced
- WAT expression of resistin and glucose transporters Slc2a2, Slc2a4 (HFD mice, WAT qRT-PCR): increased
- WAT expression of vaspin (Serpina12) (HFD mice, WAT qRT-PCR): completely abolished
- WAT mRNA of pro-fibrotic (Cola1, Ctgf, Mmp2, Timp1) and pro-inflammatory (Il6, Ccl2) genes (HFD mice, WAT qRT-PCR): downregulated
- NAD+ in liver (HFD mice, liver metabolomics): restored high levels
- hepatic Ucp2 and Ucp3 expression (HFD mice, qRT-PCR): highly upregulated
- hepatic expression of FA metabolism genes Acox1, Cpt1b, Pdk4, Hadha, Cd36 (HFD mice, qRT-PCR): strong upregulation
- hepatic expression of glucose metabolism genes Pklr, G6pc, Slc2a2 (HFD mice, qRT-PCR): normalized
- liver Adipor2 expression (HFD mice, qRT-PCR): downregulated
- liver Ctgf mRNA levels (HFD mice, qRT-PCR): significantly decreased
- liver Mmp2 mRNA levels (HFD mice, qRT-PCR): significantly decreased
- liver Retn (resistin) expression (HFD mice, qRT-PCR): restored to normal levels
- liver Serpina12 (vaspin) expression (HFD mice, qRT-PCR): downregulated
- liver pro-inflammatory genes (HFD mice, qRT-PCR): not modulated
- WAT extent of interstitial fibrosis (HFD mice, white adipose tissue): decreased
- WAT immune cell infiltration (HFD mice, white adipose tissue): decreased
- serum total cholesterol (HFD mice, after four weeks of treatment): returned to similar level as in the HFD group
- serum total cholesterol (HFD mice, after two weeks of treatment): slightly increased
- HOMA-IR index (WT vs KO study, HFD-fed WT): reduced
- WAT mean adipocyte diameters and area (WT vs KO study, HFD-fed WT): remained unchanged
- fasting blood glucose levels (WT vs KO study, HFD-fed WT): downregulated
- insulin levels (WT vs KO study, HFD-fed WT): reduced
- liver glycogen levels (WT vs KO study, HFD-fed WT): increased
- serum adiponectin (WT vs KO study, HFD-fed WT): upregulated
- serum cholesterol levels (WT vs KO study, HFD-fed WT): remained unchanged
- serum triglyceride levels (WT vs KO study, HFD-fed WT): lowered
- α-SMA positive liver staining (immunofluorescence) (WT vs KO study, HFD-fed WT): dramatic drop
- bodyweight (WT vs KO study, HFD-fed WT, 10 mg/kg daily, 8 weeks): decreased
- OGTT (WT vs KO study, HFD-fed WT, after 6 weeks): significant effect
- AMPK phosphorylation levels in the liver (data not shown): promote

Reference: PMC7391726, “Fatty acid mimetic PBI-4547 restores metabolic homeostasis via GPR84 in mice with non-alcoholic fatty liver disease” (Scientific Reports, 2020)
